According to US9512144B2, “Imidazothiazole sufonamides as nematicides” (BAYER CROPSCIENCE AKTIENGESELLSCHAFT, priority 2013, dated 2016):

Key:
Format in all cases: in vivo
Meloidogyne incognita [1] = test: Meloidogyne incognita test (MELGIN): sand, salad seeds, gall formation after 14 days; details: application rate 20 ppm, salad seedlings in sand
Protocol: Solvent: 125.0 parts by weight of acetone To produce a suitable preparation of active compound, 1 part by weight of active compound is mixed with the stated amount of solvent, and the concentrate is diluted with water to the desired concentration. Vessels are filled with sand, a solution of the active ingredient, a suspension containing eggs and larvae of the southern root-knot nematode (Meloidogyne incognita) and salad seeds. The salad seeds germinate and the seedlings grow. Galls develop in the roots. After 14 days the nematicidal activity is determined on the basis of the percentage of gall formation. 100% means that no galls were found; 0% means that the number of galls found on the roots of the treated plants was equal to that in untreated control plants.

Meloidogyne incognita [2] = test: Meloidogyne incognita spray test (MELGIN): leaves of salad and tomato plants sprayed, gall formation 24 days after spraying
Protocol: Solvent: 7 parts by weight of dimethylformamide Emulsifier: alkylaryl polyglycol ether To produce a suitable preparation of active compound, 1 part by weight of active compound is mixed with the stated amount of solvent and is diluted with water, containing an emulsifier concentration of 1000 ppm, to the desired concentration. Further test concentrations are prepared by dilution with emulsifier containing water. Ammonium sulfate and rape oil methyl ester (RME) in a dosage of 1000 ppm are added to the desired concentration. Salad and tomato plants are treated by being sprayed on the leaves with the preparation of the active compound of the desired concentration, the soil surface is covered by a protection film. 3 days after spraying, a suspension containing eggs and larvae of the southern root-knot nematode (Meloidogyne incognita) is added on the soil surface. Galls develop on the roots. 24 days after spraying, the nematicidal activity is determined on the basis of the percentage of gall formation. 100% means no galls were found; 0% means the number of galls found on the roots of the treated plants was equal to that in untreated control plants. […] Test plant: Tomato, Lycopersicon esculentum Test plant: Salad, Lactuca sativa

Meloidogyne incognita [3] = test: Meloidogyne incognita test: compound solution poured into pots with soil (loamy sand), salad seeds, gall formation after 21 days; details: salad in soil
Protocol: Solvent: 7 parts by weight of dimethylformamide Emulsifier: 2.5 parts by weight of alkylarylpolyglycolether To produce a suitable preparation of active compound, 1 part by weight of active compound is mixed with the stated amount of solvent and emulsifier and is diluted with water to the desired concentration. In the calculation of the concentration the soil volume has to be included. […] Further test concentrations are prepared by dilution with water. The compound solution is poured into pots filled with soil (loamy sand). A suspension containing eggs and larvae of the southern root-knot nematode (Meloidogyne incognita) is added, salad seeds are spread on the soil surface and covered with quartz sand. The salad seeds germinate and the seedlings grow. Galls develop on the roots. After 21 days the nematicidal activity is determined on the basis of the percentage of gall formation. 100% means no galls were found; 0% means the number of galls found on the roots of the treated plants was equal to that in untreated control plants.

[4] = test plant Salad, Lactuca sativa, leaf spray 100 ppm
[5] = test plant Salad, Lactuca sativa, leaf spray 1000 ppm
[6] = test plant Salad, Lactuca sativa, leaf spray 2500 ppm
[7] = test plant Tomato, Lycopersicon esculentum, leaf spray 100 ppm
[8] = test plant Tomato, Lycopersicon esculentum, leaf spray 1000 ppm
[9] = test plant Tomato, Lycopersicon esculentum, leaf spray 2500 ppm

| Structure (SMILES) | nematicidal activity on the basis of the percentage of gall formation (100% = no galls) (Meloidogyne incognita [1]) [%] | nematicidal activity on the basis of the percentage of gall formation (100% = no galls) (Meloidogyne incognita [3]; application rate 8 ppm) [%] | nematicidal activity on the basis of the percentage of gall formation (100% = no galls) (Meloidogyne incognita [3]; application rate 4 ppm) [%] | further results |
| --- | --- | --- | --- | --- |
| O=C(NS(=O)(=O)c1cc(C(F)(F)F)ccc1Cl)c1cn2cc(C(F)(F)F)sc2n1 [Example I-1-4] | 100 |  |  | nematicidal activity on the basis of the percentage of gall formation (100% = no galls) (Meloidogyne incognita [2]; [4]): 0%; nematicidal activity on the basis of the percentage of gall formation (100% = no galls) (Meloidogyne incognita [2]; [5]): 20%; nematicidal activity on the basis of the percentage of gall formation (100% = no galls) (Meloidogyne incognita [2]; [6]): 75%; nematicidal activity on the basis of the percentage of gall formation (100% = no galls) (Meloidogyne incognita [2]; [7]): 25%; nematicidal activity on the basis of the percentage of gall formation (100% = no galls) (Meloidogyne incognita [2]; [8]): 35%; nematicidal activity on the basis of the percentage of gall formation (100% = no galls) (Meloidogyne incognita [2]; [9]): 98%; nematicidal activity on the basis of the percentage of gall formation (100% = no galls) (Meloidogyne incognita [3]; application rate 2 ppm): 97% |
| Cc1c(C(F)(F)C(F)(F)F)sc2nc(C(=O)NS(=O)(=O)c3ccccc3Cl)cn12 [Example I-1-255] | 100 | 100 |  |  |
| Cc1ccc(C)c(S(=O)(=O)NC(=O)c2cn3c(C)c(C(F)(F)F)sc3n2)c1 [Example I-1-291] | 100 |  | 85 |  |
| COc1ccc(Br)c(S(=O)(=O)NC(=O)c2cn3cc(C(F)(F)F)sc3n2)c1 [Example I-1-206] | 100 |  | 100 |  |
| O=C(NS(=O)(=O)c1cc(Br)ccc1Cl)c1cn2cc(C(F)(F)F)sc2n1 [Example I-1-209] | 100 |  | 90 |  |
| O=C(NS(=O)(=O)c1ccccc1Br)c1cn2cc(C(F)(F)C(F)(F)F)sc2n1 [Example I-1-227] | 100 | 100 |  |  |
| O=C(NS(=O)(=O)c1ccccc1Cl)c1cn2cc(C(F)(F)C(F)(F)F)sc2n1 [Example I-1-142] | 100 |  | 80 |  |
| O=C(NS(=O)(=O)c1ccccc1F)c1cn2cc(C(F)(F)C(F)(F)F)sc2n1 [Example I-1-226] | 100 | 80 |  |  |
| Cc1ccc(Cl)cc1S(=O)(=O)NC(=O)c1cn2cc(C(F)(F)F)sc2n1 [Example I-1-8] | 100 |  | 95 |  |
| O=C(NS(=O)(=O)c1ccccc1Cl)c1cn2cc(C(F)(F)F)sc2n1 [Example I-1-3] | 100 |  |  | nematicidal activity on the basis of the percentage of gall formation (100% = no galls) (Meloidogyne incognita [3]; application rate 2 ppm): 95% |
| COc1ccc(Cl)c(S(=O)(=O)NC(=O)c2cn3cc(C(F)(F)C(F)(F)F)sc3n2)c1 [Example I-1-147] | 100 | 85 |  |  |
| Cc1ccc(C)c(S(=O)(=O)NC(=O)c2cn3cc(C(F)(F)C(F)(F)F)sc3n2)c1 [Example I-1-225] | 90 | 80 |  |  |
| Cc1c(C(F)(F)F)sc2nc(C(=O)NS(=O)(=O)c3c(Cl)cccc3Cl)cn12 [Example I-1-158] | 90 |  |  | nematicidal activity on the basis of the percentage of gall formation (100% = no galls) (Meloidogyne incognita [2]; [4]): 15%; nematicidal activity on the basis of the percentage of gall formation (100% = no galls) (Meloidogyne incognita [2]; [5]): 75%; nematicidal activity on the basis of the percentage of gall formation (100% = no galls) (Meloidogyne incognita [2]; [6]): 80%; nematicidal activity on the basis of the percentage of gall formation (100% = no galls) (Meloidogyne incognita [2]; [7]): 0%; nematicidal activity on the basis of the percentage of gall formation (100% = no galls) (Meloidogyne incognita [2]; [8]): 0%; nematicidal activity on the basis of the percentage of gall formation (100% = no galls) (Meloidogyne incognita [2]; [9]): 50%; nematicidal activity on the basis of the percentage of gall formation (100% = no galls) (Meloidogyne incognita [3]; application rate 2 ppm): 98% |
| O=C(NS(=O)(=O)c1cc(C(F)(F)F)ccc1Br)c1cn2cc(C(F)(F)F)sc2n1 [Example I-1-5] | 100 |  | 90 |  |
| Cc1c(C(F)(F)C(F)(F)F)sc2nc(C(=O)NS(=O)(=O)c3c(F)cccc3F)cn12 [Example I-1-252] | 90 | 95 |  |  |
| O=C(NS(=O)(=O)c1cc2c(cc1Cl)OC(F)(F)O2)c1cn2cc(C(F)(F)F)sc2n1 [Example I-1-12] | 100 | 95 |  |  |
| COc1ccc(Cl)c(S(=O)(=O)NC(=O)c2cn3c(C)c(C(F)(F)F)sc3n2)c1 [Example I-1-159] | 100 |  |  | nematicidal activity on the basis of the percentage of gall formation (100% = no galls) (Meloidogyne incognita [2]; [4]): 25%; nematicidal activity on the basis of the percentage of gall formation (100% = no galls) (Meloidogyne incognita [2]; [5]): 60%; nematicidal activity on the basis of the percentage of gall formation (100% = no galls) (Meloidogyne incognita [2]; [6]): 95%; nematicidal activity on the basis of the percentage of gall formation (100% = no galls) (Meloidogyne incognita [2]; [7]): 0%; nematicidal activity on the basis of the percentage of gall formation (100% = no galls) (Meloidogyne incognita [2]; [8]): 75%; nematicidal activity on the basis of the percentage of gall formation (100% = no galls) (Meloidogyne incognita [2]; [9]): 95%; nematicidal activity on the basis of the percentage of gall formation (100% = no galls) (Meloidogyne incognita [3]; application rate 2 ppm): 95% |
| COc1ccc(F)c(S(=O)(=O)NC(=O)c2cn3cc(C(F)(F)F)sc3n2)c1 [Example I-1-27] | 100 |  |  | nematicidal activity on the basis of the percentage of gall formation (100% = no galls) (Meloidogyne incognita [3]; application rate 2 ppm): 80% |
| O=C(NS(=O)(=O)c1c(Cl)cccc1Cl)c1cn2cc(C(F)(F)F)sc2n1 [Example I-1-10] | 100 | 98 |  |  |
| Cc1c(C(F)(F)F)sc2nc(C(=O)NS(=O)(=O)c3ccccc3Cl)cn12 [Example I-1-154] | 90 |  | 99 |  |
| Cc1ccc(C)c(S(=O)(=O)NC(=O)c2cn3cc(C(F)(F)F)sc3n2)c1 [Example I-1-9] | 100 | 100 |  |  |
| Cc1c(C(F)(F)F)sc2nc(C(=O)NS(=O)(=O)c3cc(C(F)(F)F)ccc3Cl)cn12 [Example I-1-289] | 100 |  | 85 |  |
